Measured values published in ChEMBL document CHEMBL3044879, “Design, synthesis, and preliminary in vitro and in vivo pharmacological evaluation of 4-{4-[2-(4-(2-substitutedquinoxalin-3-yl)piperazin-1-yl)ethyl]phenyl}thiazoles as atypical antipsychotic agents” (Med Chem Res, 2013).
The source made the active and inactive calls. No cut-off for these calls is given here.

How the values were obtained:
[1] = target: D(2) dopamine receptor (Rattus norvegicus) (UniProt P61169); assay: Displacement of [3H]spiperone from D2 receptor in Rattus norvegicus (rat) straitum membrane homogenates at 100 uM after 60 min by liquid scintillation counting analysis
[2] = target: D(2) dopamine receptor (Rattus norvegicus) (UniProt P61169); assay: Displacement of [3H]spiperone from dopaminergic D2 receptor in Rattus norvegicus (rat) straitum membrane homogenates up to 1 uM after 60 min by liquid scintillation counting analysis
[3] = target: 5-hydroxytryptamine receptor 2A (Rattus norvegicus) (UniProt P14842); assay: Displacement of [3H]ketanserin from 5-HT2A receptor in Rattus norvegicus (rat) cortex membrane homogenates at 10 uM after 90 min by liquid scintillation counting analysis
Mus musculus [4] = assay: Antagonist activity at mesolimbic dopaminergic D2 receptor in Swiss albino Mus musculus (mouse) assessed as inhibition of apomorphine-induced cage climbing behavior at 10 mg/kg, ip administered 1 hr prior to apomorphine challenge measured after 20 min relative to vehicle-treated control; format: functional; details: route intraperitoneal
Mus musculus [5] = assay: Antagonist activity at central serotonergic 5-HT2A receptor in Swiss albino Mus musculus (mouse) assessed as inhibition of quipazine meleate-induced head twiches at 10 mg/kg, ip administered 1 hr prior to quipazine meleate challenge measured after 30 to 40 min relative to vehicle-treated control; format: functional; details: route intraperitoneal
Mus musculus [6] = assay: Antagonist activity at mesolimbic dopaminergic D2 receptor in Swiss albino Mus musculus (mouse) assessed as inhibition of apomorphine-induced cage climbing behavior at 10 mg/kg, ip administered 1 hr prior to apomorphine challenge measured after 30 min relative to vehicle-treated control; format: functional; details: route intraperitoneal
[7] = target: 5-hydroxytryptamine receptor 2A (Rattus norvegicus) (UniProt P14842); assay: Displacement of [3H]ketanserin from 5-HT2A receptor in Rattus norvegicus (rat) cortex membrane homogenates up to 1 uM after 90 min by liquid scintillation counting analysis
Mus musculus [8] = assay: In vivo inhibition of 5-HT2A receptor in Swiss albino Mus musculus (mouse) at 10 mg/kg, ip relative to vehicle-treated control; format: functional; details: route intraperitoneal
Mus musculus [9] = assay: Antagonist activity at nigrostriatal dopaminergic D2 receptor in Swiss albino Mus musculus (mouse) assessed as maximum average cataleptic time at 10 mg/kg, ip after 1 to 5 hr relative to vehicle-treated control; format: organism-based; design: dose 10 mg/kg, route intraperitoneal; details: in vivo
Mus musculus [10] = assay: In vivo inhibition of dopaminergic D2 receptor in Swiss albino Mus musculus (mouse) at 10 mg/kg, ip relative to vehicle-treated control; format: functional; details: route intraperitoneal
Mus musculus [11] = assay: Antagonist activity at mesolimbic dopaminergic D2 receptor in Swiss albino Mus musculus (mouse) assessed as inhibition of apomorphine-induced cage climbing behavior at 10 mg/kg, ip administered 1 hr prior to apomorphine challenge measured after 10 min relative to vehicle-treated control; format: functional; details: route intraperitoneal
Mus musculus [12] = assay: Selectivity ratio of inhibition of 5-HT2A receptor in Swiss albino Mus musculus (mouse) to inhibition of dopaminergic D2 receptor in Swiss albino Mus musculus (mouse) at 10 mg/kg, ip; format: functional; details: route intraperitoneal

5-hydroxytryptamine receptor 2A (Rattus norvegicus), sequence (P14842 whole entry): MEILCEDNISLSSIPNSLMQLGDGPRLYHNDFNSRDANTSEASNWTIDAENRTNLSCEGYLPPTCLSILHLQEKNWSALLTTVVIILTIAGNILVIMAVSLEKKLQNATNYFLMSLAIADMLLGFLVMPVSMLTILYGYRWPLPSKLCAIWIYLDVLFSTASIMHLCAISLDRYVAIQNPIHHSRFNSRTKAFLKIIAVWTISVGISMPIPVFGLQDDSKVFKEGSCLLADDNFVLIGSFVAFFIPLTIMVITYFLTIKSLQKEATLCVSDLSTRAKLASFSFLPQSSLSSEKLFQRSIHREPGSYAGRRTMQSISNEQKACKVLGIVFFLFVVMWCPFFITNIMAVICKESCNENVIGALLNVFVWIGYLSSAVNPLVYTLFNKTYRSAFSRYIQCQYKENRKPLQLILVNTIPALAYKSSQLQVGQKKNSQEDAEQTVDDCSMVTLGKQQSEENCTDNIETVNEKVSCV
D(2) dopamine receptor (Rattus norvegicus), sequence (P61169 whole entry): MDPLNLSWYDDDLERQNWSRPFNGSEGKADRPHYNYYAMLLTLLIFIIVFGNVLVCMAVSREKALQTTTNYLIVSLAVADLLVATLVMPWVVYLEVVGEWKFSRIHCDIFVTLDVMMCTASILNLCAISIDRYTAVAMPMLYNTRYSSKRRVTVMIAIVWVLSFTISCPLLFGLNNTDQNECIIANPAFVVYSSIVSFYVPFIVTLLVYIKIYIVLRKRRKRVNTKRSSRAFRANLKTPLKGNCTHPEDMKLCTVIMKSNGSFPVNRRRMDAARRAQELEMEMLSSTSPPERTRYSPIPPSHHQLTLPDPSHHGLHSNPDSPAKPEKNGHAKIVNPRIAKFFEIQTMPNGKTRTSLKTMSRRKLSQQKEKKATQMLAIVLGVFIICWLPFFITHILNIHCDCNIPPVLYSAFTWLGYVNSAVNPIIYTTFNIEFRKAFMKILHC

SMILES | inhibition [1] [%] | inhibition [2] | inhibition [3] [%] | inhibition in vivo at 10 mg/kg (Mus musculus [4]) [%] | inhibition in vivo at 10 mg/kg (Mus musculus [5]) [%] | inhibition in vivo at 10 mg/kg (Mus musculus [6]) [%] | inhibition [7] | inhibition in vivo at 10 mg/kg (Mus musculus [8]) [%] | Time (Mus musculus [9]) [s] | Imax (Mus musculus [10]) [%] | inhibition in vivo at 10 mg/kg (Mus musculus [11]) [%] | Selectivity ratio (Mus musculus [12])
Cc1nc(-c2ccc(CCN3CCN(c4nc5ccccc5nc4Cl)CC3)cc2)cs1 | 0 | inactive | 30 | 65 | 62 | 75 | inactive | 62 | 3.25 | 80 | 80 | 0.775
COc1nc2ccccc2nc1N1CCN(CCc2ccc(-c3nc(N)sc3C)cc2)CC1 |  | inactive |  | 80 | 60 | 65 | inactive | 60 | 10.78 | 80 | 65 | 0.75
Oc1nc(-c2ccc(CCN3CCN(c4cnc5ccccc5n4)CC3)cc2)cs1 | 0 | inactive | 22 | 65 | 80 | 65 | inactive | 80 | 3.19 | 65 | 60 | 1.231
CNc1nc(-c2ccc(CCN3CCN(c4cnc5ccccc5n4)CC3)cc2)cs1 | 0 | inactive | 57 | 50 | 36 | 60 | inactive | 36 | 9.32 | 60 | 25 | 0.6
Nc1nc(-c2ccc(CCN3CCN(c4nc5ccccc5nc4Cl)CC3)cc2)cs1 | 0 | inactive | 4 | 60 | 79 | 70 | inactive | 79 | 18.24 | 70 | 65 | 1.129
Cc1nc(-c2ccc(CCN3CCN(c4nc5ccccc5nc4Cl)CC3)cc2)c(C)s1 | 0 | inactive | 31 | 60 | 51 | 80 | inactive | 51 | 9.25 | 80 | 60 | 0.6375
COc1nc2ccccc2nc1N1CCN(CCc2ccc(-c3nc(C)sc3C)cc2)CC1 |  | inactive |  | 70 | 65 | 65 | inactive | 65 | 11.25 | 85 | 85 | 0.7647
Cc1sc(N)nc1-c1ccc(CCN2CCN(c3cnc4ccccc4n3)CC2)cc1 | 0 | inactive | 58 | 80 | 31 | 60 | inactive | 31 | 2.64 | 95 | 95 | 0.3263
Oc1nc(-c2ccc(CCN3CCN(c4nc5ccccc5nc4Cl)CC3)cc2)cs1 | 0 | inactive | 0 | 60 | 58 | 50 | inactive | 58 | 28.25 | 60 | 60 | 0.9667
COc1nc2ccccc2nc1N1CCN(CCc2ccc(-c3csc(O)n3)cc2)CC1 | 0 | inactive | 28 | 60 | 67 | 60 | inactive | 67 | 7.9 | 65 | 65 | 1.031
CNc1nc(-c2ccc(CCN3CCN(c4cnc5ccccc5n4)CC3)cc2)c(C)s1 |  | inactive |  | 75 | 55 | 65 | inactive | 55 | 3.88 | 75 | 60 | 0.7333
CNc1nc(-c2ccc(CCN3CCN(c4nc5ccccc5nc4Cl)CC3)cc2)cs1 | 0 | inactive | 14 | 80 | 41 | 80 | inactive | 41 | 3.96 | 80 | 60 | 0.5125
CNc1nc(-c2ccc(CCN3CCN(c4nc5ccccc5nc4Cl)CC3)cc2)c(C)s1 | 0 | inactive | 31 | 95 | 81 | 70 | inactive | 81 | 8.12 | 95 | 95 | 0.8526
Cc1sc(N)nc1-c1ccc(CCN2CCN(c3nc4ccccc4nc3Cl)CC2)cc1 | 0 | inactive | 0 | 80 | 86 | 65 | inactive | 86 | 23.5 | 80 | 80 | 1.075
CNc1nc(-c2ccc(CCN3CCN(c4nc5ccccc5nc4OC)CC3)cc2)c(C)s1 |  | inactive |  | 50 | 80 | 70 | inactive | 80 | 3.12 | 70 | 60 | 1.143
Cc1nc(-c2ccc(CCN3CCN(c4cnc5ccccc5n4)CC3)cc2)c(C)s1 |  | inactive |  | 50 | 32 | 70 | inactive | 32 | 9.32 | 70 | 25 | 0.4571
